Some results are limits rather than exact numbers.

What is called EC50 is the concentration giving half of the maximal effect.

This test concerns Bloodstream form of Trypanosoma brucei, strain Lister 427. Put plainly: Trypanosoma brucei growth inhibition assay (CellTiter-Glo, 24 h). The conditions noted are these: Trypanosoma brucei; T. Brucei Growth Inibition Assay, class symbols; read-out: T. Brucei GI EC50. The test is classed as cell-based. How it is done:
Bloodstream form of Trypanosoma brucei, strain Lister 427 (provided by Prof. Miguel Navarro, Instituto de Parasitologia y Biomedicina “Lopez-Neyra” Avda. Conocimiento S/N Parque Tecnologico Ciencias de la Salud—Spain; ref. Navarro M. and Cross G. A. M. Molecular and Cellular Biology, 1996, Vol. 16, No. 7, pp. 3615-3625) were grown in IMDM Iscove's Modified Dulbecco's Medium (SIGMA #17633) supplemented with: 3.024 g/l sodium bicarbonate, hypoxanthine 1 mM, thymidine 0.16 mM, bathocuprione sulfonic acid 0.05 mM, cysteine 1.5 mM, ß-mercaptoethanol […] and 10% foetal bovine serum (heat-inactivated at 56° C. for 30 min). Parasites were grown at 37° C. in flasks with vented caps in a 5% CO2 incubator to a maximum cell density of about 2×10^6/ml and diluted every two-three days.
The compounds of the invention were dissolved in DMSO and transferred to assay plates by acoustic droplet ejection (ATS-100, EDC Biosystems, USA) in order to obtain an appropriate concentration and to keep the concentration of DMSO below or equal to 0.25% in the final assay volume of 30 μL. 1500 parasites resuspended in 30 μL of culture medium were then transferred to each well of a 384-well plate.
After an incubation period of 24 hours at 37° C., each well is added 15 μl of CellTiter-Glo® Reagent (Promega) and incubated at room temperature. 5-10 min post incubation, the plate is read using a luminometer (ViewLux®). A known inhibitor of the growth of T. brucei was used as the reference positive control.
As to `COc1ccc2nc(C)n(CC(=O)N3CCN(C4CCS(=O)(=O)CC4)C[C@H]3c3ncc(-c4cc5ccccc5nc4OC)[nH]3)c2c1`, the EC50 lay in the range of 510 to 1000 nM.

As to `COc1nc2ccccc2cc1-c1cnc([C@@H]2CN(CC3CCOC3)CCN2C(=O)C(C)(C)n2c(C(F)(F)F)nc3ccccc32)[nH]1` (some centres unmarked), the EC50 was in the range of 1010 to 5000 nM.

As to `COc1ccc2nc(C)n(CC(=O)N3CC[C@H](NCc4ccn(C)n4)C[C@H]3c3ncc(-c4cc5ccccc5nc4OC)[nH]3)c2c1`, the EC50 is 1010 to 5000 nM.

For `COc1ccc2nc(C)n(CC(=O)N3CCN(Cc4cn(C)nn4)C[C@H]3c3ncc(-c4cc5ccccc5nc4OC)[nH]3)c2c1`, the EC50 lay within 510 to 1000 nM.

Consider `COc1nc2ccccc2cc1-c1cnc(C2CN(CC3CCOC3)CCN2C(=O)Cn2c(C3CC3)nc3ccccc32)[nH]1` (centres unmarked), for which the EC50 lay in the range of 100 to 500 nM.

Take `COc1ccc2nc(C)n(CC(=O)N3CCN(Cc4ccn(C)n4)CC[C@@H]3c3ncc(-c4cc5ccccc5nc4OC)[nH]3)c2c1` [(R)-2-(6-methoxy-2-methyl-1H-benzo[d]imidazol-1-yl)-1-(7-(5-(2-methoxyquinolin-3-yl)-1H-imidazol-2-yl)-4-((1-methyl-1H-pyrazol-3-yl)methyl)-1,4-diazepan-1-yl)ethan-1-one]: the EC50 is under 100 nM.

As to `CCCCCCN1CCN(C(=O)Cc2c[nH]c3ccc(O)cc23)C(c2ncc(-c3ccc4ccccc4c3)[nH]2)C1` (centres unmarked), the EC50 was in the range of 1010 to 5000 nM.

For `COc1nc2ccccc2cc1-c1cnc(C2CN(CC3CCOC3)CCN2C(=O)c2sc(-c3cnccn3)nc2C)[nH]1` (centres unmarked), the EC50 was 1010 to 5000 nM.

On to `CCCCCCN1CCN(C(=O)CC2C(=O)Nc3ccc(OC)cc32)C(c2ncc(-c3ccc4ccccc4c3)[nH]2)C1` (centres unmarked), for which the EC50 was in the range of 1010 to 5000 nM.

With `COc1ccc2nc(C)n(CC(=O)N3CCN(Cc4nccs4)C[C@H]3c3ncc(-c4cc5ccccc5nc4OC)[nH]3)c2c1` [(S)-2-(6-methoxy-2-methyl-1H-benzo[d]imidazol-1-yl)-1-(2-(5-(2-methoxyquinolin-3-yl)-1H-imidazol-2-yl)-4-(thiazol-2-ylmethyl)piperazin-1-yl)ethan-1-one], the EC50 was under 100 nM.

For `COc1nc2ccccc2cc1-c1cnc([C@@H]2CN(CC3CCOC3)CCN2C(=O)Cc2noc3ccc(F)cc23)[nH]1` (some centres unmarked), the EC50 was 1010 to 5000 nM.

On to `COc1ccc2nc(C(F)(F)F)n(CC(=O)N3CCN(Cc4ccn(C)n4)C[C@H]3c3ncc(-c4cc5ccccc5nc4OC)[nH]3)c2c1` [(S)-2-(6-methoxy-2-(trifluoromethyl)-1H-benzo[d]imidazol-1-yl)-1-(2-(5-(2-methoxyquinolin-3-yl)-1H-imidazol-2-yl)-4-((1-methyl-1H-pyrazol-3-yl)methyl)piperazin-1-yl)ethan-1-one], for which the EC50 was under 100 nM.

`COc1ccc2nc(C(F)(F)F)n(CC(=O)N3CCN(Cc4noc(C)n4)CCC3c3ncc(-c4cc5ccccc5nc4OC)[nH]3)c2c1` (centres unmarked): the EC50 lay in the range of 100 to 500 nM.

In the case of `CN1CCN(C(=O)C2(c3ccccc3)CC2)C(c2ncc(-c3ccc4ccccc4c3)[nH]2)C1` (centres unmarked), the EC50 is 1010 to 5000 nM.

For the compound `COc1ccc2[nH]c(C)c(CC(=O)N3CCN(C)CC3c3ncc(-c4ccc5ccccc5c4)n3C)c2c1` (centres unmarked), the EC50 was in the range of 1010 to 5000 nM.

As for `COc1ccc2cc(C)n(CC(=O)N3CCS(=O)(=O)CC3c3ncc(-c4cc5ccccc5nc4OC)[nH]3)c2c1` (centres unmarked), the EC50 lay in the range of 510 to 1000 nM.

For the compound `COc1ccc2[nH]c(C)c(CC(=O)N3CCCN(C)CC3c3ncc(-c4ccc5ccccc5c4)[nH]3)c2c1` (centres unmarked) [2-(5-methoxy-2-methyl-1H-indol-3-yl)-1-(4-methyl-2-(5-(naphthalen-2-yl)-1H-imidazol-2-yl)-1,4-diazepan-1-yl)ethan-1-one], the EC50 was in the range of 1010 to 5000 nM.

As to `COc1ccc2nc(C(F)(F)F)n(CC(=O)N3CC[C@H](NC4COC4)C[C@H]3c3ncc(-c4cc5ccccc5nc4OC)[nH]3)c2c1` [2-(6-methoxy-2-(trifluoromethyl)-1H-benzo[d]imidazol-1-yl)-1-((2S,4S)-2-(5-(2-methoxyquinolin-3-yl)-1H-imidazol-2-yl)-4-(oxetan-3-ylamino)piperidin-1-yl)ethan-1-one], the EC50 was under 100 nM.

As for `COc1ccc2[nH]c(C)c(CC(=O)N3CCN(Cc4ccn(C)n4)CCC3c3ncc(-c4cc5ccccc5nc4OC)[nH]3)c2c1` (centres unmarked) [2-(5-methoxy-2-methyl-1H-indol-3-yl)-1-(7-(5-(2-methoxyquinolin-3-yl)-1H-imidazol-2-yl)-4-((1-methyl-1H-pyrazol-3-yl)methyl)-1,4-diazepan-1-yl)ethan-1-one], the EC50 is under 100 nM.

In the case of `COc1ccc2nc(C(F)(F)F)n(CC(=O)N3CCN(CCc4csc(C)n4)CCC3c3ncc(-c4cc5ccccc5nc4OC)[nH]3)c2c1` (centres unmarked), the EC50 was in the range of 100 to 500 nM.

As for `COc1ccc2nc(C(F)(F)F)n(CC(=O)N3CCN(Cc4ncco4)CCC3c3ncc(-c4cc5ccccc5nc4OC)[nH]3)c2c1` (centres unmarked) [2-(6-methoxy-2-(trifluoromethyl)-1H-benzo[d]imidazol-1-yl)-1-(7-(5-(2-methoxyquinolin-3-yl)-1H-imidazol-2-yl)-4-(oxazol-2-ylmethyl)-1,4-diazepan-1-yl)ethan-1-one], the EC50 was under 100 nM.

Regarding `COc1nc2ccccc2cc1-c1cnc(C2CN(Cc3cn(C)nn3)CCN2C(=O)Cc2c(C)[nH]c3ccc(F)cc23)[nH]1` (centres unmarked), the 50% effective concentration (EC50) was 100 to 500 nM.

On to `COc1ccc2nc(C(F)(F)F)n(CC(=O)N3CCN(Cc4cnn(C)c4C)CCC3c3ncc(-c4cc5ccccc5nc4OC)[nH]3)c2c1` (centres unmarked), for which the EC50 was 100 to 500 nM.

Regarding `CNC(=O)CCCN1CCN(C(=O)Cc2c(C)[nH]c3ccc(OC)cc23)C(c2ncc(-c3ccc4ccccc4c3)[nH]2)C1` (centres unmarked), the EC50 lay in the range of 100 to 500 nM.

On to `COc1nc2ccccc2cc1-c1cnc(C2CN(CC3CCOC3)CCN2C(=O)c2ccnc3ccccc23)[nH]1` (centres unmarked), for which the EC50 was in the range of 1010 to 5000 nM.

For the compound `COc1ccc2nc(C(F)(F)F)n(CC(=O)N3CCN(Cc4cnc(C)s4)CCC3c3ncc(-c4cc5ccccc5nc4OC)[nH]3)c2c1` (centres unmarked), the EC50 is 100 to 500 nM.

Consider `COc1ccc2c(c1)[C@H](CC(=O)N1CCN(C)CC1c1ncc(-c3ccc4ccccc4c3)[nH]1)C(=O)N2` (some centres unmarked), for which the EC50 is 1010 to 5000 nM.

With `COc1nc2ccccc2cc1-c1cnc(C2CN(CC3CCOC3)CCN2C(=O)CS(=O)(=O)c2ccccc2)[nH]1` (centres unmarked), the EC50 fell in the range of 1010 to 5000 nM.

Turning to `COc1ccc2nc(C)n(CC(=O)N3CCN(CC4CCOC4)C[C@H]3c3ncc(/C=C/c4ccccc4)[nH]3)c2c1` (stereo partly drawn) [2-(6-methoxy-2-methyl-1H-benzo[d]imidazol-1-yl)-1-((2S)-2-(5-((E)-styryl)-1H-imidazol-2-yl)-4-((tetrahydrofuran-3-yl)methyl)piperazin-1-yl)ethan-1-one], the EC50 was 1010 to 5000 nM.

For `COc1nc2ccccc2cc1-c1cnc(C2CN(Cc3ccoc3)CCN2C(=O)Cc2c(C)[nH]c3ccc(F)cc23)[nH]1` (centres unmarked), the concentration giving a half-maximal response (EC50) lay in the range of 100 to 500 nM.

`COc1nc2ccccc2cc1-c1cnc(C2CN(C(C)=O)CCN2C(=O)Cc2ccccc2)[nH]1` (centres unmarked): the EC50 fell in the range of 1010 to 5000 nM.

As to `COc1ccc2nc(C(F)(F)F)n(CC(=O)N3CCS(=O)(=O)C[C@H]3c3ncc(-c4cc5ccccc5nc4OC)[nH]3)c2c1` [(R)-2-(6-methoxy-2-(trifluoromethyl)-1H-benzo[d]imidazol-1-yl)-1-(3-(5-(2-methoxyquinolin-3-yl)-1H-imidazol-2-yl)-1,1-dioxidothiomorpholino)ethan-1-one], the EC50 was in the range of 100 to 500 nM.

In the case of `COc1ccc2nc(C(F)(F)F)n(CC(=O)N3CC[C@H](NCc4cnoc4)C[C@H]3c3ncc(-c4cc5ccccc5nc4OC)[nH]3)c2c1` [1-((2S,4S)-4-((isoxazol-4-ylmethyl)amino)-2-(5-(2-methoxyquinolin-3-yl)-1H-imidazol-2-yl)piperidin-1-yl)-2-(6-methoxy-2-(trifluoromethyl)-1H-benzo[d]imidazol-1-yl)ethan-1-one], the EC50 was under 100 nM.

On to `COc1nc2ccccc2cc1-c1cnc([C@@H]2CN(Cc3cnn(C)c3)CCN2C(=O)Cn2c(C(F)(F)F)nc3ccccc32)[nH]1`, for which the EC50 was 100 to 500 nM.

Regarding `Cc1[nH]c2ccccc2c1CC(=O)N1CCN(Cc2ccccc2)CC1c1ncc(-c2ccc3ccccc3c2)[nH]1` (centres unmarked), the EC50 lay in the range of 1010 to 5000 nM.

With `COc1ccc2nc(C(F)(F)F)n(CC(=O)N3C[C@@H](NC4CCOC4)CC[C@H]3c3ncc(-c4cc5ccccc5nc4OC)[nH]3)c2c1` (some centres unmarked), the EC50 was in the range of 510 to 1000 nM.

On to `O=C(Cc1n[nH]c2ccccc12)N1CCN(CC2CCOC2)CC1c1ncc(-c2ccc3ccccc3c2)[nH]1` (centres unmarked), for which the EC50 was 1010 to 5000 nM.

On to `COc1ccc2nc(C(F)(F)F)n(CC(=O)N3CC[C@H](N(Cc4ccn(C)n4)C(C)C)C[C@H]3c3ncc(-c4cc5ccccc5nc4OC)[nH]3)c2c1` [1-((2S,4S)-4-(isopropyl((1-methyl-1H-pyrazol-3-yl)methyl)amino)-2-(5-(2-methoxyquinolin-3-yl)-1H-imidazol-2-yl)piperidin-1-yl)-2-(6-methoxy-2-(trifluoromethyl)-1H-benzo[d]imidazol-1-yl)ethan-1-one], for which the EC50 is under 100 nM.

As for `COc1ccc2nc(C)n(CC(=O)N3CCN(Cc4cnccn4)CCC3c3ncc(-c4cc5ccccc5nc4OC)[nH]3)c2c1` (centres unmarked), the EC50 was 100 to 500 nM.

As for `CCCCCCN1CCN(C(=O)Cc2n[nH]c3ccccc23)C(c2ncc(-c3ccc4ccccc4c3)[nH]2)C1` (centres unmarked), the EC50 was in the range of 1010 to 5000 nM.

Regarding `COc1nc2ccccc2cc1-c1cnc(C2CS(=O)(=O)CCN2C(=O)Cn2nc(C)c3ccccc3c2=O)[nH]1` (centres unmarked), the EC50 was 1010 to 5000 nM.
